In ChEMBL document CHEMBL1201862, “PubChem BioAssay data set” (2004):
Activity calls are given as the source filed them.

How the values were obtained:
[1] = biological target: T1, Heat shock factor protein 1 (Mus musculus, UniProt P38532); test: decrease of HSF1-responsive luciferase luminescence – cell-based, NIH3T3, dose retest, confirmation (AID 2382); format: functional;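 also: NIH3T3 fibroblasts with HSF1-driven luciferase reporter stressed by proteasome inhibitor MG132; luminescence from HSF1-driven luciferase expression after 8 hours of MG132 stress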
T1 sequence (P38532 whole entry): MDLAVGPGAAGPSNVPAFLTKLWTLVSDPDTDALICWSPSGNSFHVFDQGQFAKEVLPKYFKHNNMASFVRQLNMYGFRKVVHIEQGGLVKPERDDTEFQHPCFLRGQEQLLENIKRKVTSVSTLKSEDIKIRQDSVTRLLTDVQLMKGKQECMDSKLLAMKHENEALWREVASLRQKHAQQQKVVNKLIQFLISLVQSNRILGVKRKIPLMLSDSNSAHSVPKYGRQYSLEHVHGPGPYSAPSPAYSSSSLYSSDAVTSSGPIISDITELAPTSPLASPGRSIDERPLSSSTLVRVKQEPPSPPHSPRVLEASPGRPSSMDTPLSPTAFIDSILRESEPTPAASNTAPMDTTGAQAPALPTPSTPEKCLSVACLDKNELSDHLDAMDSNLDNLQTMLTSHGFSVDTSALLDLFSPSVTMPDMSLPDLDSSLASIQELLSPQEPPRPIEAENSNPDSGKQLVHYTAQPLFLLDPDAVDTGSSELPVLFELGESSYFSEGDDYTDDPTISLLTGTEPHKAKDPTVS

Cytochrome P450 2C19 = Cytochrome P450 2C19 (Homo sapiens, UniProt P33261); test: Cytochrome panel assay with activity outcomes. Panel member name: p450-cyp2c19 Compounds with AC50 equal or less than 10 uM are considered active; format: functional
Cytochrome P450 1A2 = biological target: T2, Cytochrome P450 1A2 (Homo sapiens, UniProt P05177);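 also: PubChem cytochrome P450 panel assay, CYP1A2 panel member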
T2 sequence (P05177 whole entry): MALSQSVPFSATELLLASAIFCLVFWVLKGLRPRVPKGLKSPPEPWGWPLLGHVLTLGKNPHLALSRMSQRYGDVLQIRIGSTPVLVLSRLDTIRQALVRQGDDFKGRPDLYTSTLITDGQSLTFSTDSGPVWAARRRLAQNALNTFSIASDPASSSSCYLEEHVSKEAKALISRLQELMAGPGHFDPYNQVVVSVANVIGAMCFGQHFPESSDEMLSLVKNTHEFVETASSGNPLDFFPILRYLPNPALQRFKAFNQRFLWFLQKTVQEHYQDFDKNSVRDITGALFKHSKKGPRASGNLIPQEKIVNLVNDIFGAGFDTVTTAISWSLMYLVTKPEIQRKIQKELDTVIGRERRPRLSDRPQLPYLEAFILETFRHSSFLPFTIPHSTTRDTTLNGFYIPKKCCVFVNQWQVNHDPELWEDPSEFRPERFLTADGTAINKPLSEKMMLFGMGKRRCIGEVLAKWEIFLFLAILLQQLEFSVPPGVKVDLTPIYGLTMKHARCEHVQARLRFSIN

Cytochrome P450 3A4 = Cytochrome P450 3A4 (Homo sapiens, UniProt P08684);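 also: CYP3A4 tested as one member of a cytochrome P450 panel screen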
Cytochrome P450 2D6 = Cytochrome P450 2D6 (Homo sapiens, UniProt P10635);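 also: CYP2D6 member of a cytochrome P450 panel assay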
[2] = P. falciparum Dd2 growth inhibitors, dose response, SYBR Green, cherry-picked samples (AID 1159567); format: functional, cell-based

Chain of Cytochrome P450 3A4 (P08684 whole entry): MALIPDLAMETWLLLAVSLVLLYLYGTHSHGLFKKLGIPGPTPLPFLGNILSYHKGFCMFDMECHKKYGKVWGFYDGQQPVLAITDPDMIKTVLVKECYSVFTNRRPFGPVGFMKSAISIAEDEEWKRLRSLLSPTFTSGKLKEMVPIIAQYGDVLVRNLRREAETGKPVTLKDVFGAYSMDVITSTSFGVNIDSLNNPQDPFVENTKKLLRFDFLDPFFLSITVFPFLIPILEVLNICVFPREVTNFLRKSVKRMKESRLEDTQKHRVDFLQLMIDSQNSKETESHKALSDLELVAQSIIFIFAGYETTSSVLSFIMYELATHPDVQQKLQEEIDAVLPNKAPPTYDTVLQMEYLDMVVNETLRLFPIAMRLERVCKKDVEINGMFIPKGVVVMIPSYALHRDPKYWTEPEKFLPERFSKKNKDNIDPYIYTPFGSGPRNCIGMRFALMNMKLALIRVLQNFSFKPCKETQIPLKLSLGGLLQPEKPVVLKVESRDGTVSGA
Chain of Cytochrome P450 2D6 (P10635 whole entry): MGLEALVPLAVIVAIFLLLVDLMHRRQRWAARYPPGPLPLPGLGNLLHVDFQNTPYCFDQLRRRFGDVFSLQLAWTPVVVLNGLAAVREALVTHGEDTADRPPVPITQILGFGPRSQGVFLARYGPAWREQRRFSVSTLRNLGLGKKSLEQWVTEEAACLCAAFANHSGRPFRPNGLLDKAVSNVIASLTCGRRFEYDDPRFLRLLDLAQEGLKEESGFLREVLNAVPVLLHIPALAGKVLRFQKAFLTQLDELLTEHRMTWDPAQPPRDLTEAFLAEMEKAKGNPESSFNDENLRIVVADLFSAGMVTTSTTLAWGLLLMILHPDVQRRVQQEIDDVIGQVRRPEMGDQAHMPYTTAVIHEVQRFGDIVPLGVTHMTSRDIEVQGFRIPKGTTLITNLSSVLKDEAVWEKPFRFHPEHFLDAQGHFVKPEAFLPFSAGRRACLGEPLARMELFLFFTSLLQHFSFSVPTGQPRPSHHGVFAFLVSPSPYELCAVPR
Chain of Cytochrome P450 2C19 (P33261 whole entry): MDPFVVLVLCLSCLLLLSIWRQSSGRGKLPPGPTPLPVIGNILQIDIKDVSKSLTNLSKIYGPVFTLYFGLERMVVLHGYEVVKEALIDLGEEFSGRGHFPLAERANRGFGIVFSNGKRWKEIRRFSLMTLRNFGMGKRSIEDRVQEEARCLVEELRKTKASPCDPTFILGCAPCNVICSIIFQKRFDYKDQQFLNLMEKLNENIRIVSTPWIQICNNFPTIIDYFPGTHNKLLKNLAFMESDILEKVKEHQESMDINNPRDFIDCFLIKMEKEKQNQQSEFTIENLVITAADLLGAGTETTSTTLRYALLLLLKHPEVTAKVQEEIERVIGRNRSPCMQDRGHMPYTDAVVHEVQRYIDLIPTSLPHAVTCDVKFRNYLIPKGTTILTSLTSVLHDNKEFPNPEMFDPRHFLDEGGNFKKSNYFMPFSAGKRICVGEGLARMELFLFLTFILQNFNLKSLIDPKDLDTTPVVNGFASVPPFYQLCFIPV

SMILES: N#C/C(=C\c1ccccn1)c1ccccn1
- EC50 [1]: > 195 µM (not active)

SMILES: Cc1ccc(N(Cc2cc3ccc(C)cc3nc2O)C(=O)c2cccs2)cc1
- EC50 [1]: > 195 µM (not active)

SMILES: Cc1onc(-c2c(F)cccc2Cl)c1C(=O)c1ccccc1
- EC50 [1]: > 195 µM (not active)

SMILES: O=C1/C(=C\c2ccccc2)C[C@@]2(O)[C@H]3Cc4ccc(O)c5c4[C@@]2(CCN3CC2CC2)[C@@H]1O5
- AC50 (Cytochrome P450 2C19; read-out: AC50): 15.8 µM (inconclusive)
- AC50 (Cytochrome P450 1A2): 31.6 µM (inconclusive)
- AC50 (Cytochrome P450 3A4): 31.6 µM (inconclusive)

SMILES: CCCNC(=O)c1ccc(N2CCC3(CC2)CC(c2cccc(Br)c2)=NO3)c(NC(=O)c2ccc(Br)cc2)c1
- EC50 [1]: > 195 µM (not active)

SMILES: Cc1ccc(NC2=NC(=O)/C(=C\c3cccs3)S2)cc1C
- EC50 [1]: > 195 µM (not active)

SMILES: CCCCn1c(C(C)NC(=O)CC)nc2ccccc21 (centres undefined)
- EC50 [1]: > 195 µM (not active)

SMILES: Cc1c2cccc(Sc3ccccc3)c2c2c3c(cccc13)[S+](c1ccccc1)C2 (centres undefined)
- AC50 (Cytochrome P450 2D6): 5.01 µM (inconclusive)
- AC50 (Cytochrome P450 3A4): 3.16 µM (inconclusive)

SMILES: C[C@@H](C(=O)Nc1ccc2ccccc2c1)[C@H]1C[C@]1(C)[C@H](NC(=O)c1cnccn1)c1ccccc1
- AC50 (Cytochrome P450 1A2): 25.1 µM (inconclusive)

SMILES: Cn1c(C(=O)O)c(CC(=O)Nc2ccc3c(c2)OCCO3)c2ccccc21
- EC50 [1]: 1.95 µM (active)

SMILES: COc1cccc(N(CC(=O)Nc2cccnc2)S(C)(=O)=O)c1
- EC50 [1]: > 195 µM (not active)

SMILES: COc1ncc2nc(-c3cccs3)c(=O)n(Cc3cccs3)c2n1
- AC50 (Cytochrome P450 2D6): 3.98 µM (inconclusive)

SMILES: O=C(CSc1ccccn1)Nc1nc2ccc(Br)cc2s1
- AC50 (Cytochrome P450 2D6): 15.8 µM (inconclusive)
- AC50 (Cytochrome P450 3A4): 22.4 µM (inconclusive)

SMILES: Cc1noc(C)c1-c1cc(NC2CC2)ncn1
- AC50 (Cytochrome P450 2C19; read-out: AC50): 31.6 µM (inconclusive)
- AC50 (Cytochrome P450 2D6): 20 µM (inconclusive)
- AC50 (Cytochrome P450 3A4): 25.1 µM (inconclusive)

SMILES: Cc1ccc(Cn2nc(C)c(NC(=O)c3cc(-c4ccco4)on3)c2C)cc1
- AC50 (Cytochrome P450 1A2): 39.8 µM (inconclusive)

SMILES: O=[N+]([O-])c1cccc(-c2nnc(-c3ccccc3)o2)c1
- EC50 [1]: > 195 µM (not active)

SMILES: CC(=O)N1CCC2(CC1)CCN(c1cccc(-c3ccccc3)c1)CC2
- AC50 (Cytochrome P450 2D6): 31.6 µM (inconclusive)

SMILES: CON(c1nc(N(C)C)nc(N(C)C)n1)S(=O)(=O)c1ccccc1Cl
- AC50 (Cytochrome P450 2D6): 25.1 µM (inconclusive)
- AC50 (Cytochrome P450 1A2): 14.1 µM (inconclusive)

SMILES: COc1ccc(NS(=O)(=O)NC(=O)c2cn(C)c3ccccc23)cc1
- EC50 [1]: > 195 µM (not active)

SMILES: Cc1cccc(CNc2ccnc(-c3cccc(NS(C)(=O)=O)c3)n2)c1
- AC50 (Cytochrome P450 2D6): 39.8 µM (inconclusive)

SMILES: CCn1c(SCC(=O)N(C)C2CCS(=O)(=O)C2)nnc1-c1cccs1 (centres undefined)
- EC50 [1]: > 195 µM (not active)

SMILES: Cc1cc(Cc2cc(Cc3cc(C)cc(C(C)(C)C)c3O)c(C)cc2C)c(O)c(C(C)(C)C)c1
- AC50 (Cytochrome P450 2D6): 3.98 µM (inconclusive)

SMILES: CC(Sc1nc(NCc2ccccc2)nc(N(C)C)n1)C(=O)Nc1ccccc1 (centres undefined)
- AC50 (Cytochrome P450 2D6): 15.8 µM (inconclusive)

SMILES: CC1CN(C(=O)Nc2ccc3c(c2)OCCO3)CC(C)O1 (centres undefined)
- EC50 [1]: > 195 µM (not active)

SMILES: Cc1ccccc1-c1cc(Nc2ccc(F)cc2)ncn1
- AC50 (Cytochrome P450 2D6): 31.6 µM (inconclusive)
- AC50 (Cytochrome P450 3A4): 39.8 µM (inconclusive)

SMILES: O=C1c2ccccc2C(Nc2ccc3c(c2)OCCO3)N1c1ccccn1 (centres undefined)
- EC50 [1]: 57.5 µM (active)

SMILES: c1cc(C2N3CCCN2CC3)ccn1 (centres undefined)
- AC50 (Cytochrome P450 2C19): inconclusive
- AC50 (Cytochrome P450 1A2): 1.26 µM (inconclusive)

SMILES: O=C(O)c1cccc(N2C(=O)/C(=C/c3ccc([N+](=O)[O-])cc3)C=C2c2ccccc2)c1
- EC50 [1]: > 195 µM (not active)

SMILES: CCCOc1ccc(OCCNC2CCCC2)cc1
- AC50 (Cytochrome P450 2C19; read-out: AC50): 31.6 µM (inconclusive)
- AC50 (Cytochrome P450 1A2): 14.1 µM (inconclusive)

SMILES: Cc1cc2ccccc2c(=O)n1CC(=O)Nc1ccc2c(c1)OCO2
- EC50 [1]: > 195 µM (not active)

SMILES: O=C(CNC1CCCCCC1)Nc1ccccc1N1CCCCC1
- AC50 (Cytochrome P450 1A2): 14.1 µM (inconclusive)

SMILES: CSc1ccccc1NC(=O)C1=CC(c2ccc(C)cc2)=NS(=O)(=O)N1C
- EC50 [1]: > 195 µM (not active)

SMILES: Cc1ccccc1-c1nccc(NCCN2CCOCC2)n1
- AC50 (Cytochrome P450 2D6): 31.6 µM (inconclusive)

SMILES: CC(=O)Cc1c[nH]c2ccccc12
- EC50 [1]: > 195 µM (not active)

SMILES: CS(=O)(=O)Nc1cccc(-c2nccc(NCc3cccs3)n2)c1
- AC50 (Cytochrome P450 2C19; read-out: AC50): 25.1 µM (inconclusive)
- AC50 (Cytochrome P450 2D6): 25.1 µM (inconclusive)

SMILES: O=C(CSc1ccc(Br)cc1)Nc1ccccc1N1CCOCC1
- EC50 [1]: > 195 µM (not active)

SMILES: O=C(c1ccncc1)N1CCC2(CC1)CN(c1ncccn1)C2
- AC50 (Cytochrome P450 2D6): 20 µM (inconclusive)
- AC50 (Cytochrome P450 1A2): 6.31 µM (inconclusive)

SMILES: COc1cc(C(=O)Nc2ccc3c(c2)OCCO3)c(-n2cnnn2)cc1OC
- AC50 (Cytochrome P450 2C19): inconclusive
- AC50 (Cytochrome P450 1A2): 2.51 µM (inconclusive)
- AC50 (Cytochrome P450 3A4): 25.1 µM (inconclusive)

SMILES: C[C@@H]1CN([C@H](C)CO)C(=O)c2cccc(NS(=O)(=O)c3ccccc3)c2O[C@H]1CN(C)Cc1ccc(-c2ccccc2)cc1
- AC50 [2]: 3.68 µM (active)

SMILES: O=C(c1ccccc1F)N1CC[C@H]2[C@H](CO)Nc3ccc(C#Cc4ccc(F)cc4)cc3[C@H]21
- AC50 [2]: 4.96 µM (active)

SMILES: O=C(Nc1cccc(F)c1)N[C@@H]1CC[C@H](CCNS(=O)(=O)c2cccc(Cl)c2)O[C@H]1CO
- AC50 [2]: 31.2 µM (active)

SMILES: COc1cccc(-c2ccc3c(c2)[C@@H]2[C@@H](CCN2C(=O)C2CCCCC2)[C@H](CO)N3)c1
- AC50 [2]: 4.18 µM (active)

SMILES: O=C(C[C@H]1C[C@H]2c3cc(NC(=O)Cc4ccncc4)ccc3O[C@H]2[C@H](CO)O1)NCc1ccccc1
- AC50 [2]: 4.55 µM (active)

SMILES: COc1ccc2c3c([nH]c2c1)[C@H](CO)N(Cc1cc(F)ccc1F)CC31CN(C(=O)C2CCC2)C1
- AC50 [2]: 7.04 µM (active)

SMILES: OC[C@@H]1CC[C@@H]2O[C@H](CCc3ccc(C#Cc4ccccc4)cc3)[C@H](n3cc(-c4ccccc4)nn3)C[C@@H]2O1
- AC50 [2]: 3.86 µM (active)

SMILES: COc1ccc2c3c([nH]c2c1)[C@H](CO)N(Cc1ccc(F)cc1)CC31CCN(C(C)=O)CC1
- AC50 [2]: 5.92 µM (active)

SMILES: C[C@@H]1CN([C@@H](C)CO)C(=O)c2c(c3ccccc3n2C)-c2ccccc2CO[C@H]1CN(C)C(=O)Cc1ccccc1
- AC50 [2]: 5.21 µM (active)

SMILES: C/C=C/c1ccc([C@H]2[C@@H](CO)N(C(=O)CC)[C@@H]2CNCC2CCCCC2)cc1
- AC50 [2]: 4.04 µM (active)

SMILES: CN1CCN([C@@H]2Cc3ccccc3Sc3ccc(Cl)cc32)CC1
- AC50 (Cytochrome P450 2C19; read-out: AC50): 25.1 µM (inconclusive)
- AC50 (Cytochrome P450 1A2): 12.6 µM (inconclusive)
